Entries after “also recorded” stand apart in the source; their conditions may differ.
Test system: EL4 lymphoma
Experiment: Repeated treatments of mice bearing ip EL4 lymphoma
Assay type: in vivo, C57BL/6 mice
Design: Median survival time: unit not given here
Conditions: for Median survival time: mice that died of the tumor; for Antitumor (curing) effect in words: injected intraperitoneally at different intervals after tumor cell innoculation; for Relative effectivity among derivatives: comparison in words
Method: Four to six weeks old C57BL/6 mice were innoculated with the ascite lymphoma tumor EL4.BU. Daunomycin and its derivatives were injected intraperitoneally at different intervals after tumor cell innoculation.
Some of the mice were totally cured, with no physical manifestation of any side effects of the tested derivatized daunomycin compounds.
10^6 EL4 lymphoma cells were innoculated ip into C57BL/6 males. Drug
administration started 2 days later.
*Refers to the group of mice that died of the tumor.

COc1cccc2c1C(=O)c1c(O)c3c(c(O)c1C2=O)C[C@@](O)(C(C)=O)C[C@@H]3O[C@H]1C[C@H](NC(=O)[C@H](CCCCN)NC(=O)[C@H](CCCCN)NC(=O)[C@@H](N)CCCCN)[C@H](O)[C@H](C)O1 [(Lys)3 -DM, (lysyl)3 -daunomycin]
Long time survivors (over 60 days) (250 μg/mouse, 8 injections ip): 6 | Toxic deaths/No. mice treated (250 μg/mouse, 8 injections ip): 1/8 | Median survival time (250 μg/mouse, 8 injections ip): 25 | Antitumor (curing) effect in words: complete cure, or a significantly prolonged life span with no apparent toxic effects

COc1cccc2c1C(=O)c1c(O)c3c(c(O)c1C2=O)CC(O)(C(C)=O)CC3OC1CC(NC(=O)C(CCCNC(=N)N)NC(=O)C(N)CCCNC(=N)N)C(O)C(C)O1 (centres unmarked) [(arginyl)2 -daunomycin, arginyl-arginyl-daunomycin]
Antitumor (curing) effect in words: complete cure, or a significantly prolonged life span with no apparent toxic effects

COc1cccc2c1C(=O)c1c(O)c3c(c(O)c1C2=O)C[C@@](O)(C(C)=O)C[C@@H]3O[C@H]1C[C@H](NC(=O)C(N)Cc2ccc(O)c(O)c2)[C@H](O)[C@H](C)O1 (some centres unmarked) [DOPA-DM, dihydroxyphenylalanyl-daunomycin]
Long time survivors (over 60 days) (240 μg/mouse, 8 injections ip): 3 | Toxic deaths/No. mice treated (240 μg/mouse, 8 injections ip): 0/4 | Median survival time (240 μg/mouse, 8 injections ip): 28

COc1cccc2c1C(=O)c1c(O)c3c(c(O)c1C2=O)C[C@@](O)(C(C)=O)C[C@@H]3O[C@H]1C[C@H](N)[C@H](O)[C@H](C)O1 [Daunomycin, daunomycin]
Long time survivors (over 60 days) (20 μg/mouse, 5 injections ip): 1 | Toxic deaths/No. mice treated (20 μg/mouse, 5 injections ip): 1/8 | Median survival time (20 μg/mouse, 5 injections ip): 17 | Long time survivors (over 60 days) (20 μg/mouse, 6 injections ip): 0 | Toxic deaths/No. mice treated (20 μg/mouse, 6 injections ip): 4/8 | Median survival time (20 μg/mouse, 6 injections ip): 15 | Long time survivors (over 60 days) (25 μg/mouse, 4 injections ip): 0 | Toxic deaths/No. mice treated (25 μg/mouse, 4 injections ip): 2/8 | Median survival time (25 μg/mouse, 4 injections ip): 14.5 | Long time survivors (over 60 days) (25 μg/mouse, 5 injections ip): 1 | Toxic deaths/No. mice treated (25 μg/mouse, 5 injections ip): 2/8 | Median survival time (25 μg/mouse, 5 injections ip): 24.5 | Long time survivors (over 60 days) (30 μg/mouse, 4 injections ip): 2 | Toxic deaths/No. mice treated (30 μg/mouse, 4 injections ip): 4/8 | Median survival time (30 μg/mouse, 4 injections ip): 25 | Long time survivors (over 60 days) (40 μg/mouse, 1 injection ip): 0 | Toxic deaths/No. mice treated (40 μg/mouse, 1 injection ip): 2/8 | Median survival time (40 μg/mouse, 1 injection ip): 19 | Long time survivors (over 60 days) (40 μg/mouse, 4 injections ip): 0 | Toxic deaths/No. mice treated (40 μg/mouse, 4 injections ip): 4/8 | Median survival time (40 μg/mouse, 4 injections ip): 18 | Long time survivors (over 60 days) (50 μg/mouse, 2 injections ip): 0 | Toxic deaths/No. mice treated (50 μg/mouse, 2 injections ip): 2/8 | Median survival time (50 μg/mouse, 2 injections ip): 19 | Long time survivors (over 60 days) (60 μg/mouse, 1 injection ip): 0 | Toxic deaths/No. mice treated (60 μg/mouse, 1 injection ip): 6/8 | Median survival time (60 μg/mouse, 1 injection ip): 18 | Long time survivors (over 60 days) (80 μg/mouse, 1 injection ip): 0 | Toxic deaths/No. mice treated (80 μg/mouse, 1 injection ip): 8/8 | Median survival time (80 μg/mouse, 1 injection ip): 17 | Effects at high doses (doses exceeding 70 μg/mouse in a single injection, or lower doses in multiple injections): acute toxicity marked by a generally wasted appearance and death, to no efficient depression of the growing tumor | Antitumor (curing) effect in words: no satisfactory curing effects; also recorded: very narrow border-zone between excessive toxicity and poor curative efficiency

COc1cccc2c1C(=O)c1c(O)c3c(c(O)c1C2=O)C[C@@](O)(C(C)=O)C[C@@H]3OC1CC(NC(=O)C(N)CCN)C(O)C(C)O1.[Cl-].[Na+] (some centres unmarked) [Dbu-DM, diaminobutyryl-daunomycin]
Long time survivors (over 60 days) (650 μg/mouse, 8 injections ip): 12 | Toxic deaths/No. mice treated (650 μg/mouse, 8 injections ip): 0/14 | Median survival time (650 μg/mouse, 8 injections ip): 31 | Antitumor (curing) effect in words: complete cure, or a significantly prolonged life span with no apparent toxic effects

COc1cccc2c1C(=O)c1c(O)c3c(c(O)c1C2=O)C[C@@](O)(C(C)=O)C[C@@H]3O[C@H]1C[C@H](NC(=O)[C@@H](N)Cc2cnc[nH]2)[C@H](O)[C@H](C)O1 [histidyl-daunomycin]
Antitumor (curing) effect in words: complete cure, or a significantly prolonged life span with no apparent toxic effects

(lysyl)2 -daunomycin [(Lys)2 -DM]
Long time survivors (over 60 days) (250 μg/mouse, 8 injections ip): 6 | Toxic deaths/No. mice treated (250 μg/mouse, 8 injections ip): 1/8 | Median survival time (250 μg/mouse, 8 injections ip): 24 | Antitumor (curing) effect in words: complete cure, or a significantly prolonged life span with no apparent toxic effects

(ornithyl)2 -daunomycin [(Orn)2 -DM]
Long time survivors (over 60 days) (300 μg/mouse, 8 injections ip): 6 | Toxic deaths/No. mice treated (300 μg/mouse, 8 injections ip): 1/8 | Relative effectivity among derivatives: much more effective than with ornithine | Antitumor (curing) effect in words: complete cure, or a significantly prolonged life span with no apparent toxic effects

(ornithyl)n -daunomycin where n=2 to 5 [(Orn)5 -DM]
Long time survivors (over 60 days) (300 μg/mouse, 8 injections ip): 2 | Toxic deaths/No. mice treated (300 μg/mouse, 8 injections ip): 1/8 | Median survival time (300 μg/mouse, 8 injections ip): 38

arginyl-daunomycin [Arg-DM]
Long time survivors (over 60 days) (250 μg/mouse, 7 injections ip): 3 | Toxic deaths/No. mice treated (250 μg/mouse, 7 injections ip): 0/4 | Median survival time (250 μg/mouse, 7 injections ip): 35 | Long time survivors (over 60 days) (400 μg/mouse, 6 injections ip): 3 | Toxic deaths/No. mice treated (400 μg/mouse, 6 injections ip): 1/4

aspartyl-lysyl-daunomycin [Asp-Lys-DM]
Long time survivors (over 60 days) (600 μg/mouse, 8 injections ip): 6 | Toxic deaths/No. mice treated (600 μg/mouse, 8 injections ip): 0/8 | Median survival time (600 μg/mouse, 8 injections ip): 31 | Relative effectivity among derivatives: more effective than aspartyl-daunomycin | Antitumor (curing) effect in words: complete cure, or a significantly prolonged life span with no apparent toxic effects

lysyl-daunomycin [Lys-DM]
Long time survivors (over 60 days) (200 μg/mouse, 4 injections ip): 0 | Toxic deaths/No. mice treated (200 μg/mouse, 4 injections ip): 0/8 | Median survival time (200 μg/mouse, 4 injections ip): 28 | Long time survivors (over 60 days) (250 μg/mouse, 8 injections ip): 5 | Toxic deaths/No. mice treated (250 μg/mouse, 8 injections ip): 2/8 | Median survival time (250 μg/mouse, 8 injections ip): 26 | Antitumor (curing) effect in words: complete cure, or a significantly prolonged life span with no apparent toxic effects

lysyl-leucyl-daunomycin
Relative effectivity among derivatives: more effective than leucyl-daunomycin

From patent US4256632A, “Novel derivatives of daunomycin” (Yeda Research and Development Co. Ltd., priority 1978, dated 1981)
